The results in this text go back to PubChem BioAssay AID504726 (Broad Institute, 2011).

The source made the active and inactive calls.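 How the source made its calls: active means fitted half-maximal concentration for a cytotoxic signal drop no higher than ten times the top valid dose tested; inconclusive means flat curve between -70 and -30 percent, or an unreliable fit; inactive means flat within 30 percent, signal rise, or potency beyond limit.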

The nature of the assay: HeLa cell cytotoxicity, dose response, cytotoxicity control, 24 h, cherry-picked samples (AID 504726).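 Further: 0% = DMSO neutral controls and -100% = mitoxantrone positive controls.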 As to conditions: HeLa viability, CellTiter-Glo ATP luminescence, 24 h; at 35 µM (top of the series). A general note: ATP-based viability assays read luminescence as a measure of living cells.
Turning to `CCc1ccc[n+](-c2[nH]c(=O)sc2/C=N/NC([S-])=Nc2ccccc2)c1`, the activity change, negative = cytotoxicity was -14.2% (inactive).

For the molecule `N#CC1=C(N)Oc2ccc3ccc(O)cc3c2C1c1ccsc1` (centres undefined), the activity change, negative = cytotoxicity is 5.49% (inactive).

Turning to `O=C(c1coc(=O)c(Br)c1)N1CCCc2ccccc21`, the activity change, negative = cytotoxicity was -15% (inactive). In the case of `Cc1ccc(-c2nnc(-c3ccc(NC(=O)c4ccco4)cc3)o2)cc1`, the activity change, negative = cytotoxicity was -2.7% (inactive). On to `COc1cc(CN2CC(=O)N(c3cc(Cl)ccc3C)C2=S)cc(OC)c1OC`, for which the activity change, negative = cytotoxicity was -7.61% (inactive). As for `COC(=O)C[n+]1cccc2ccccc21`, the activity change, negative = cytotoxicity was -6.11% (inactive). Take `CSc1nc(SC(C)C(=O)O)c2c3c(sc2n1)COC(C)(C)C3` (centres undefined): the activity change, negative = cytotoxicity is -9.35% (inactive). `CSCCC(NC(=O)c1ccccc1Cl)C(=O)N1CCCC(C)C1` (centres undefined): the activity change, negative = cytotoxicity is -15.7% (inactive).

Consider `Cc1noc(C)c1-c1nc(CSc2ccccc2)no1`, for which the activity change, negative = cytotoxicity was -16.7% (inactive). The figure for `CC(C)Cc1nc(SCC(=O)Nc2nnc(CC(C)C)s2)n[nH]1` is -15% (inactive); for `O=C(CSc1nc2ccccc2[nH]1)Nc1cccc(S(=O)(=O)N2CCOCC2)c1` it is 3.94% (inactive); for `O=C(Nc1cc(Cl)ccc1-n1cncn1)c1cccs1` it is -6.29% (inactive). In the case of `Cc1ccc(OCC(=O)NC(=S)Nc2cccc(NC(=O)c3ccc(Cl)cc3Cl)c2)cc1` it was -4.71% (inactive); in that of `CCn1c(SCc2nc3sc(C(=O)O)c(C)c3c(=O)[nH]2)nc2ccccc21`, -9.24% (inactive); in that of `CC(=O)OCCCn1c(C)[n+](C)c2cc(Cl)c(Cl)cc21`, -14.3% (inactive). `COc1ccc(NC(=O)COC(=O)c2c(-c3ccccc3)noc2C)cc1`: the activity change, negative = cytotoxicity was 6.45% (inactive).

With `O=C(O)c1ccc2c(c1)[C@@H]1C=CC[C@@H]1[C@H](c1ccccn1)N2`, the activity change, negative = cytotoxicity is -31.8% (inactive). For `COC(=O)C1=C(N)OC2=C(C(=O)CCC2)C1c1cccs1` (centres undefined), the activity change, negative = cytotoxicity is -5.56% (inactive). In the case of `COc1ccc(N=C2SC(CC(=O)Nc3ccccc3)C(=O)N2Cc2ccco2)cc1` (centres undefined), the activity change, negative = cytotoxicity is -17.3% (inactive). In the case of `CC(C)c1ccc(NC(=O)Cn2c(=O)oc3cccnc32)cc1`, the activity change, negative = cytotoxicity is -7.38% (inactive). As for `Cc1ccc2cccc(OCC(=O)NCCC3=CCCCC3)c2n1`, the activity change, negative = cytotoxicity is -6.65% (inactive). As to `COc1ccc(C(C)=O)cc1CN(C)C`, the activity change, negative = cytotoxicity was 9% (inactive). On to `Cc1n[nH]c(C)c1N1C(=O)c2cccc3c(N4CCCCCC4)ccc(c23)C1=O`, for which the activity change, negative = cytotoxicity is -15.8% (inactive). As to `CN1CCN(C(=S)c2ccc(N(C)C)cc2)CC1`, the activity change, negative = cytotoxicity was 6.8% (inactive). In the case of `COc1cc(OC)cc(C(=O)NC2CC3CCC(C2)N3C)c1` (centres undefined), the activity change, negative = cytotoxicity is 3.6% (inactive).

For `O=C(O)CC(C(=O)O)N1C(=O)/C(=C/C=C/c2ccco2)SC1=S` (centres undefined), the activity change, negative = cytotoxicity is -8.39% (inactive). For `CCOC(=O)CCCn1c(C)nc(=O)c(-c2ccccc2)c1C`, the activity change, negative = cytotoxicity was 4.75% (inactive).

As to `O=C(O)/C=C/c1ccccc1Oc1ccccc1`, the activity change, negative = cytotoxicity is -8.62% (inactive).

`O=C(O)c1ccc2c(c1)C(=O)/C(=C\c1ccco1)C2=O`: the activity change, negative = cytotoxicity is 3.44% (inactive). In the case of `COc1ccc(N(CC(=O)NCc2ccc3c(c2)OCO3)C(=O)c2csnn2)cc1` it was 3.04% (inactive). With `CCOc1ccc(-n2c(Cc3cc(=O)[nH]c(=O)[nH]3)nnc2SCc2cccnc2)cc1`, the activity change, negative = cytotoxicity was -1.5% (inactive). Consider `CCN(CC)C(=S)SC1CCCCN(C(=O)c2ccccc2)C1=O` (centres undefined), for which the activity change, negative = cytotoxicity was -6.6% (inactive).

Consider `CCOC(=O)CN1NC2(CCCCCC2)NC1=S`, for which the activity change, negative = cytotoxicity was -1.79% (inactive). The figure for `CC(OC(=O)CCN1C(=O)C2CC=CCC2C1=O)C(=O)Nc1ccc(F)cc1` (centres undefined) is -6.8% (inactive). The figure for `Cc1cc(-c2nnc(SCC(=O)Nc3ccccc3)n2C)no1` is -3.15% (inactive); for `O=C1c2cccc3c(O)ccc(c23)C(=O)N1Cc1ccco1` it is 8.13% (inactive); for `CCCCN(C(=O)C(C)Oc1ccc(Br)cc1)c1c(N)n(CC(C)C)c(=O)[nH]c1=O` (centres undefined) it is 3.21% (inactive).

As to `Nc1ccc2nc3c(=O)[nH]c(=S)[nH]c3nc2c1`, the activity change, negative = cytotoxicity is -3.49% (inactive). Consider `O=C(O)CCCCCn1c(SCC(=O)c2ccc(O)c(O)c2)nc2ccsc2c1=O`, for which the activity change, negative = cytotoxicity is -16.5% (inactive). On to `O=C(CSc1cccc2cccnc12)N/N=C/c1ccc(O)cc1`, for which the activity change, negative = cytotoxicity was 0.069% (inactive). With `COc1ccc(C(=O)c2ccsc2N)cc1`, the activity change, negative = cytotoxicity is 2.38% (inactive).

As for `Cc1ccc(C(=O)CCC(=O)Nc2ncccc2C)cc1`, the activity change, negative = cytotoxicity was -3.79% (inactive). Take `N=C1/C(=C\c2ccc(Br)o2)C(=O)N=C2SC(CC(=O)N3CCOCC3)=NN12`: the activity change, negative = cytotoxicity is 1.98% (inactive). In the case of `O=C(/C=C\c1ccccc1)Oc1cccc2cccnc12` it was -9.78% (inactive). As for `O=C(Cn1ncc(N2CCCC2)c(Cl)c1=O)c1ccc(Cl)cc1`, the activity change, negative = cytotoxicity is 7.35% (inactive).

Consider `CCN(C(=O)COC(=O)CNS(=O)(=O)c1ccc(SC)c([N+](=O)[O-])c1)C1CCCCC1`, for which the activity change, negative = cytotoxicity was -5.61% (inactive). Take `COc1ccc(-c2n[nH]c(=S)n2-c2ccc(C)cc2)cc1`: the activity change, negative = cytotoxicity was 4.29% (inactive). On to `O=C(Nc1ccc(Br)cn1)c1cccc2ccccc12`, for which the activity change, negative = cytotoxicity was -12.4% (inactive). Regarding `CN(CC(=O)Nc1ccc(N2CCOCC2)cc1)C(=O)CSc1ccc(Br)cc1`, the activity change, negative = cytotoxicity is 0.641% (inactive). Take `NC(=O)C1(N2CCCCC2)CCN(Cc2ccc(Br)cc2)CC1`: the activity change, negative = cytotoxicity was -2.98% (inactive). As to `C=CCNC(=S)N1CCN(S(=O)(=O)c2ccc(C)cc2)CC1`, the activity change, negative = cytotoxicity is -6.85% (inactive). For `COc1cccc(NC(=O)CN(C)C(=O)c2cc3ccccc3cc2OC)c1`, the activity change, negative = cytotoxicity was 6.23% (inactive). In the case of `CCOC(=O)C1C2C=CC3(CN(c4cccc(Cl)c4)C(=O)C13)O2` (centres undefined), the activity change, negative = cytotoxicity is -5.58% (inactive). The figure for `O=C(Cn1nc(Cc2ccncc2)c2ccccc2c1=O)N1CCN(C(=O)c2ccco2)CC1` is -4.22% (inactive); for `O=C(O)/C=C/C(=O)Nc1ccc(Cc2ccc(NC(=O)/C=C/C(=O)O)cc2)cc1` it is 6.62% (inactive); for `COc1ccc(NS(=O)(=O)c2cccc3ccccc23)cc1` it is -7.48% (inactive).

`O=C(O)c1[nH]c2ccccc2c1C(c1cc(Cl)cc([N+](=O)[O-])c1O)c1c(C(=O)O)[nH]c2ccccc12`: the activity change, negative = cytotoxicity is -6.4% (inactive). Take `C/C(=N\NC(=O)CCc1c(C)n[nH]c1C)c1ccc([N+](=O)[O-])cc1`: the activity change, negative = cytotoxicity is 6.48% (inactive). Regarding `O=C(N/N=C/c1ccc(N2CCOCC2)cc1)c1ccccn1`, the activity change, negative = cytotoxicity was -14.2% (inactive). For the molecule `Nc1ccc2c(O)cc(S(=O)(=O)O)cc2c1`, the activity change, negative = cytotoxicity was -11% (inactive). The figure for `CC1Cc2ccccc2N1C(=O)CCS(=O)(=O)c1cccs1` (centres undefined) is -6.91% (inactive); for `Cc1cc(C)nc(SCC(=O)N/N=C/c2cc(C)n(-c3ccccc3C)c2C)n1` it is -7.55% (inactive); for `CCOC(=O)N1CCN(C(=S)NC(=O)c2cccc(OC)c2)CC1` it is -2.14% (inactive). The figure for `Cn1c(=O)c(NC2CCCCC2)c2c3c(cccc31)C(=O)c1ccccc1-2` is -11.9% (inactive). In the case of `COc1ccc(-c2cc(C(=O)N(C)CCc3ccc(OC)c(OC)c3)c3ccccc3n2)cc1` it was -7.16% (inactive); in that of `CCN(CC)C(=O)C1c2ccccc2Oc2ccccc21`, -12.1% (inactive). Turning to `CC(=O)OCCn1c2nc(=O)[nH]c(=O)c-2nc2cc(C)c(C)cc21`, the activity change, negative = cytotoxicity was -8.08% (inactive). As to `O=C(C1CCCO1)N1CCN(c2ncccn2)CC1` (centres undefined), the activity change, negative = cytotoxicity was -0.396% (inactive). Take `O=S(=O)(O)c1cccc2cccc(Nc3ccccc3)c12`: the activity change, negative = cytotoxicity is -4.31% (inactive). Consider `C=C(C)C(=O)Nc1cccc(C2=NOC3(C2)C[C@@H](C(N)=O)N(C(=O)C2(C)CC2)C3)c1` (some centres undefined), for which the activity change, negative = cytotoxicity is 1.25% (inactive). For `Cc1cc(C(F)(F)F)c2c(N)c(C(=O)Nc3cc(C)on3)sc2n1`, the activity change, negative = cytotoxicity was -0.48% (inactive). In the case of `CCCc1nnc(NC(=O)CCC(=O)NCc2ccc(OC)cc2)s1` it was -1.54% (inactive); in that of `COc1cccc(C2CC(=O)Nc3cc4c(cc32)CCC4)c1` (centres undefined), 14.6% (inactive).

`NNC(=O)CC1=NNC(=O)C1`: the activity change, negative = cytotoxicity is -0.701% (inactive). The figure for `Nc1nc(-c2ccc(C(=O)O)cc2)cs1` is -2% (inactive).

Regarding `Clc1ccc(C2=CC(c3ccco3)n3ncnc3N2)cc1` (centres undefined), the activity change, negative = cytotoxicity is -16.1% (inactive). On to `CC(C)Cn1c(N)c(C(=O)CSc2nnc(-c3ccco3)n2C)c(=O)n(C)c1=O`, for which the activity change, negative = cytotoxicity is -1.08% (inactive).

In the case of `COc1cc2c(cc1OC)CN(C(=O)c1ccc(S(=O)(=O)N3CCCC3)cc1)CC2`, the activity change, negative = cytotoxicity was 1.87% (inactive). With `O=C(NCC1CCCO1)c1cccc(S(=O)(=O)N(Cc2ccccc2)c2ccccc2)c1` (centres undefined), the activity change, negative = cytotoxicity is -6.52% (inactive).
